Columns and labels:
Assay type in all cases: in vivo
[1] = system: Plutella xylostella (Diamond Back Moth); assay: Example B4: Plutella xylostella (diamond back moth), treated artificial diet, eggs; conditions: 192 h, application rate of 200 ppm, 8 days after infestation, in comparison to untreated samples, read-out: effect in at least one of the two categories (mortality or growth inhibition)
Experimental: Example B4: Plutella xylostella (Diamond Back Moth
24-well microtiter plates with artificial diet were treated with aqueous test solutions prepared from 10′000 ppm DMSO stock solutions by pipetting. After drying, Plutella eggs were pipetted through a plastic stencil onto a gel blotting paper and the plate was closed with it. The samples were assessed for mortality and growth inhibition in comparison to untreated samples 8 days after infestation.

[2] = system: Frankliniella occidentalis (Western Flower Thrips); assay: Example B3: Frankliniella occidentalis (western flower thrips), sprayed sunflower leaf discs; conditions: foliar, 168 h, application rate of 200 ppm, population of mixed ages, 7 days after infestation
Experimental: Example B3: Frankliniella occidentalis (Western Flower Thrips
Sunflower leaf discs were placed on agar in 24-well microtiter plates and sprayed with aqueous test solutions prepared from […] stock solutions. After drying the leaf discs were infested with a Frankliniella population of mixed ages. The samples were assessed for mortality 7 days after infestation.

[3] = system: Euschistus heros (Neotropical Brown Stink Bug); assay: Example B2: Euschistus heros (neotropical brown stink bug), sprayed soybean leaves, N2 nymphs; conditions: 120 h, application rate of 200 ppm, 5 days after infestation, in comparison to untreated samples, read-out: effect in at least one of the two categories (mortality or growth inhibition)
Experimental: Example B2: Euschistus heros (Neotropical Brown Stink Bug
Soybean leaves on agar in 24-well microtiter plates were sprayed with aqueous test solutions prepared from 10′000 ppm DMSO stock solutions. After drying the leaves were infested with N2 nymphs. The samples were assessed for mortality and growth inhibition in comparison to untreated samples 5 days after infestation.

[4] = system: Diabrotica balteata (Corn Root Worm); assay: Example B1: Diabrotica balteata (corn root worm), sprayed maize sprouts on agar, L2 larvae; conditions: 96 h, application rate of 200 ppm, 4 days after infestation, in comparison to untreated samples, read-out: effect in at least one of the two categories (mortality or growth inhibition)
Experimental: Example B1: Diabrotica balteata (Corn Root Worm
Maize sprouts placed onto an agar layer in 24-well microtiter plates were treated with aqueous test solutions prepared from 10′000 ppm DMSO stock solutions by spraying. After drying, the plates were infested with L2 larvae (6 to 10 per well). The samples were assessed for mortality and growth inhibition in comparison to untreated samples 4 days after infestation.

[5] = system: Spodoptera littoralis (Egyptian Cotton Leaf Worm); assay: Example B7: Spodoptera littoralis (Egyptian cotton leaf worm), sprayed cotton leaf discs, L1 larvae; conditions: foliar, 72 h, application rate of 200 ppm, 3 days after infestation, in comparison to untreated samples
Experimental: Example B7: Spodoptera littoralis (Egyptian Cotton Leaf Worm
Cotton leaf discs were placed onto agar in 24-well microtiter plates and sprayed with aqueous test solutions prepared from 10′000 ppm DMSO stock solutions. After drying the leaf discs were infested with five L1 larvae. The samples were assessed for mortality, anti-feeding effect, and growth inhibition in comparison to untreated samples 3 days after infestation. Control of Spodoptera littoralis by a test sample is given when at least one of the categories mortality, anti-feedant effect, and growth inhibition is higher than the untreated sample.

[6] = system: Bemisia tabaci (Cotton White Fly); assay: Example B6: Bemisia tabaci (cotton white fly), feeding/contact activity, sprayed cotton leaf discs; conditions: foliar, 144 h, application rate of 200 ppm, adult white flies, 6 days after incubation
Experimental: Example B6: Bemisia tabaci (Cotton White Fly). Feeding/Contact Activity
Cotton leaf discs were placed on agar in 24-well microtiter plates and sprayed with aqueous test solutions prepared from 10′000 ppm DMSO stock solutions. After drying the leaf discs were infested with adult white flies. The samples were checked for mortality 6 days after incubation.

[7] = system: Myzus persicae (Green Peach Aphid); assay: Example B5: Myzus persicae (green peach aphid), feeding/contact activity, sprayed sunflower leaf discs; conditions: foliar, 144 h, application rate of 200 ppm, aphid population of mixed ages, 6 days after infestation
Experimental: Example B5: Myzus persicae (Green Peach Aphid). Feeding/Contact Activity
Sunflower leaf discs were placed onto agar in a 24-well microtiter plate and sprayed with aqueous test solutions prepared from 10′000 ppm DMSO stock solutions. After drying, the leaf discs were infested with an aphid population of mixed ages. The samples were assessed for mortality 6 days after infestation.

CCN=S(=O)(c1ccc2oc(-c3ncc(N=S(C)(C)=O)cc3S(=O)(=O)CC)nc2c1)C(F)(F)F (centres unmarked) [P2, [2-[5-[[dimethyl(oxo)-λ^6-sulfanylidene]amino]-3-ethylsulfonyl-2-pyridyl]-1,3-benzoxazol-5-yl]-ethylimino-oxo-(trifluoromethyl)-λ^6-sulfane]
≥ 80%: percent effect (mortality or growth inhibition) at 200 ppm [1] | mortality at 200 ppm [2] | effect (mortality or growth inhibition) at 200 ppm [3] | percent effect (mortality or growth inhibition) at 200 ppm [4] | percent control (mortality, anti-feeding effect or growth inhibition) at 200 ppm [5]

CCS(=O)(=O)c1cc(C2(C#N)CC2)cnc1-c1nc2cc(S(=N)(=O)C(F)(F)F)ccc2o1 (centres unmarked) [P7, 1-[5-ethylsulfonyl-6-[5-(trifluoromethylsulfonimidoyl)-1,3-benzoxazol-2-yl]-3-pyridyl]cyclopropanecarbonitrile]
≥ 80%: mortality at 200 ppm [6] | percent effect (mortality or growth inhibition) at 200 ppm [1] | effect (mortality or growth inhibition) at 200 ppm [3] | percent effect (mortality or growth inhibition) at 200 ppm [4] | percent control (mortality, anti-feeding effect or growth inhibition) at 200 ppm [5]

CCS(=O)(=O)c1cc(Oc2ccccn2)cnc1-c1nc2cc(S(=N)(=O)C(F)(F)F)ccc2o1 (centres unmarked) [P9, [2-[3-ethylsulfonyl-5-(2-pyridyloxy)-2-pyridyl]-1,3-benzoxazol-5-yl]-imino-oxo-(trifluoromethyl)-λ^6-sulfane]
≥ 80%: percent effect (mortality or growth inhibition) at 200 ppm [1] | effect (mortality or growth inhibition) at 200 ppm [3] | mortality at 200 ppm [7] | percent effect (mortality or growth inhibition) at 200 ppm [4] | percent control (mortality, anti-feeding effect or growth inhibition) at 200 ppm [5]

CCN=S(=O)(c1ccc2oc(-c3ncc(C4CC4)cc3S(=O)(=O)CC)nc2c1)C(F)(F)F (centres unmarked) [P11, [2-(5-cyclopropyl-3-ethylsulfonyl-2-pyridyl)-1,3-benzoxazol-5-yl]-ethylimino-oxo-(trifluoromethyl)-λ^6-sulfane]
≥ 80%: percent effect (mortality or growth inhibition) at 200 ppm [1] | effect (mortality or growth inhibition) at 200 ppm [3] | mortality at 200 ppm [7] | percent effect (mortality or growth inhibition) at 200 ppm [4] | percent control (mortality, anti-feeding effect or growth inhibition) at 200 ppm [5]

CCS(=O)(=O)c1cc(C2CC2)cnc1-c1nc2cc(S(=N)(=O)C(F)(F)F)ccc2o1 (centres unmarked) [P12, [2-(5-cyclopropyl-3-ethylsulfonyl-2-pyridyl)-1,3-benzoxazol-5-yl]-imino-oxo-(trifluoromethyl)-λ^6-sulfane]
≥ 80%: percent effect (mortality or growth inhibition) at 200 ppm [1] | mortality at 200 ppm [2] | effect (mortality or growth inhibition) at 200 ppm [3] | mortality at 200 ppm [7] | percent effect (mortality or growth inhibition) at 200 ppm [4] | percent control (mortality, anti-feeding effect or growth inhibition) at 200 ppm [5]

CCS(=O)(=O)c1cccnc1-c1nc2cc(S(=O)(=NC)C(F)(F)F)ccc2o1 (centres unmarked) [P18, [2-(3-ethylsulfonyl-2-pyridyl)-1,3-benzoxazol-5-yl]-methylimino-oxo-(trifluoromethyl)-λ^6-sulfane]
≥ 80%: percent effect (mortality or growth inhibition) at 200 ppm [1] | effect (mortality or growth inhibition) at 200 ppm [3] | mortality at 200 ppm [7] | percent effect (mortality or growth inhibition) at 200 ppm [4] | percent control (mortality, anti-feeding effect or growth inhibition) at 200 ppm [5]

CCN=S(=O)(c1ccc2oc(-c3ncccc3S(=O)(=O)CC)nc2c1)C(F)(F)F (centres unmarked) [P19, ethylimino-[2-(3-ethylsulfonyl-2-pyridyl)-1,3-benzoxazol-5-yl]-oxo-(trifluoromethyl)-λ^6-sulfane]
≥ 80%: percent effect (mortality or growth inhibition) at 200 ppm [1] | effect (mortality or growth inhibition) at 200 ppm [3] | mortality at 200 ppm [7] | percent effect (mortality or growth inhibition) at 200 ppm [4] | percent control (mortality, anti-feeding effect or growth inhibition) at 200 ppm [5]

CCS(=O)(=O)c1cc(OCC(C)(F)F)cnc1-c1nc2cc(S(=N)(=O)C(F)(F)F)ccc2o1 (centres unmarked) [P26, [2-[5-(2,2-difluoropropoxy)-3-ethylsulfonyl-2-pyridyl]-1,3-benzoxazol-5-yl]-imino-oxo-(trifluoromethyl)-λ^6-sulfane]
≥ 80%: percent effect (mortality or growth inhibition) at 200 ppm [1] | mortality at 200 ppm [2] | effect (mortality or growth inhibition) at 200 ppm [3] | mortality at 200 ppm [7] | percent effect (mortality or growth inhibition) at 200 ppm [4] | percent control (mortality, anti-feeding effect or growth inhibition) at 200 ppm [5]

CCN=S(=O)(c1ccc2oc(-c3ncc(OCC(C)(F)F)cc3S(=O)(=O)CC)nc2c1)C(F)(F)F (centres unmarked) [P27, [2-[5-(2,2-difluoropropoxy)-3-ethylsulfonyl-2-pyridyl]-1,3-benzoxazol-5-yl]-ethylimino-oxo-(trifluoromethyl)-λ^6-sulfane]
≥ 80%: percent effect (mortality or growth inhibition) at 200 ppm [1] | mortality at 200 ppm [2] | effect (mortality or growth inhibition) at 200 ppm [3] | mortality at 200 ppm [7] | percent effect (mortality or growth inhibition) at 200 ppm [4] | percent control (mortality, anti-feeding effect or growth inhibition) at 200 ppm [5]

CCS(=O)(=O)c1cc(-c2nccc(C(F)(F)F)n2)cnc1-c1nc2cc(S(=N)(=O)C(F)(F)F)ccc2o1 (centres unmarked) [P40, [2-[3-ethylsulfonyl-5-[4-(trifluoromethyl)pyrimidin-2-yl]-2-pyridyl]-1,3-benzoxazol-5-yl]-imino-oxo-(trifluoromethyl)-λ^6-sulfane]
≥ 80%: percent effect (mortality or growth inhibition) at 200 ppm [1] | mortality at 200 ppm [2] | effect (mortality or growth inhibition) at 200 ppm [3] | percent effect (mortality or growth inhibition) at 200 ppm [4] | percent control (mortality, anti-feeding effect or growth inhibition) at 200 ppm [5]

CCN=S(=O)(c1ccc2c(c1)nc(-c1nc(-n3cncn3)ccc1S(=O)(=O)CC)n2C)C(F)(F)F (centres unmarked) [P45, ethylimino-[2-[3-ethylsulfonyl-6-(1,2,4-triazol-1-yl)-2-pyridyl]-1-methyl-benzimidazol-5-yl]-oxo-(trifluoromethyl)-λ^6-sulfane]
≥ 80%: percent effect (mortality or growth inhibition) at 200 ppm [1] | mortality at 200 ppm [7] | percent effect (mortality or growth inhibition) at 200 ppm [4] | percent control (mortality, anti-feeding effect or growth inhibition) at 200 ppm [5]

CCS(=O)(=O)c1cc(Oc2ccccn2)cnc1-c1nc2cc(S(=N)(=O)C(F)(F)F)ccc2n1C (centres unmarked) [P50, [2-[3-ethylsulfonyl-5-(2-pyridyloxy)-2-pyridyl]-1-methyl-benzimidazol-5-yl]-imino-oxo-(trifluoromethyl)-λ^6-sulfane]
≥ 80%: percent effect (mortality or growth inhibition) at 200 ppm [1] | effect (mortality or growth inhibition) at 200 ppm [3] | mortality at 200 ppm [7] | percent effect (mortality or growth inhibition) at 200 ppm [4] | percent control (mortality, anti-feeding effect or growth inhibition) at 200 ppm [5]

CCN=S(=O)(c1ccc2c(c1)nc(-c1ncc(Oc3ccccn3)cc1S(=O)(=O)CC)n2C)C(F)(F)F (centres unmarked) [P51, ethylimino-[2-[3-ethylsulfonyl-5-(2-pyridyloxy)-2-pyridyl]-1-methyl-benzimidazol-5-yl]-oxo-(trifluoromethyl)-λ^6-sulfane]
≥ 80%: percent effect (mortality or growth inhibition) at 200 ppm [1] | effect (mortality or growth inhibition) at 200 ppm [3] | mortality at 200 ppm [7] | percent effect (mortality or growth inhibition) at 200 ppm [4] | percent control (mortality, anti-feeding effect or growth inhibition) at 200 ppm [5]

CCS(=O)(=O)c1cc(-c2ncc(C#N)cn2)cnc1-c1nc2cc(S(=N)(=O)C(F)(F)F)ccc2n1C (centres unmarked) [P52, 2-[5-ethylsulfonyl-6-[1-methyl-5-(trifluoromethylsulfonimidoyl)benzimidazol-2-yl]-3-pyridyl]pyrimidine-5-carbonitrile]
≥ 80%: percent effect (mortality or growth inhibition) at 200 ppm [1] | effect (mortality or growth inhibition) at 200 ppm [3] | mortality at 200 ppm [7] | percent effect (mortality or growth inhibition) at 200 ppm [4] | percent control (mortality, anti-feeding effect or growth inhibition) at 200 ppm [5]

CCN=S(=O)(c1ccc2c(c1)nc(-c1ncc(-c3ncc(C#N)cn3)cc1S(=O)(=O)CC)n2C)C(F)(F)F (stereo not drawn) [P53, 2-[5-ethylsulfonyl-6-[5-[N-ethyl-S-(trifluoromethyl)sulfonimidoyl]-1-methyl-benzimidazol-2-yl]-3-pyridyl]pyrimidine-5-carbonitrile]
≥ 80%: percent effect (mortality or growth inhibition) at 200 ppm [1] | effect (mortality or growth inhibition) at 200 ppm [3] | mortality at 200 ppm [7] | percent effect (mortality or growth inhibition) at 200 ppm [4] | percent control (mortality, anti-feeding effect or growth inhibition) at 200 ppm [5]
